Source: patent US5883074A, “Potentiators of antibacterial agents” (priority 1995, dated 1999)
Where two headings read alike, the source gives them in different places.

Columns and labels:
E. faecalis VanA strain [1] = assay: Vancomycin potentiation screen VPS-20; format: cell-based; details: Enterococcus faecalis, 10 ug/ml test compound
Protocol: (§1) In the VPS-20 protocol, vancomycin is used at 20 ug/ml, test compounds are used at 10 ug/ml (this is not critical, a range could be used as well). The growth medium is Brain Heart Infusion broth however, any of a variety of media which will support growth of the specific bacterial strain can be used. The VPS-D-Ala screen uses 8 ug/ml of vancomycin and 50 mM D-alanine. This amino acid is added to feed the bacteria excess alanine, which allows the bacteria to incorporate the alanine in some cases instead of incorporating the (resistance causing) D-lactate in the pentapeptide termini of the cell wall precursor. The presence of this D-alanine supplement thus makes the assay less stringent.
(§2) Inoculate E. faecalis VanA strain in BHI broth (pick a few colonies into 3 ml BHI with 2.56 ug/ml vancomycin and grow O/N at 35° C. in a shaker rotating at 225 rpm.
(§3) Dilute the O/N culture 1:50 in BHI with 2.56 ug/ml vancomycin (0.5 ml±24.5 ml BHI) in a 125-ml flask, put back in the 35° C. shaker until the cells grow to early log phase (OD600 about 0.2, takes approximately 2 hrs). Make a 1:800 dilution of the log phase culture with BHI broth. 50 ul of these diluted cells will be used as the inoculum in the assay as described below. Add the inoculum after the other reagents.
(§4) Meanwhile, test the inoculum concentration and purity: Make 3 serial 10-fold dilutions of the inoculum in 0.2 ml BHI broth. Plate 100 ul on TSA agar plates (trypticase soy agar), incubate at 35° C. O/N, count the colonies to estimate the CFU/ml in the inoculum (it should be 10^4 -10^5 CFU/ml).
(§5) Make vancomycin stock at 50 mg/ml in ddH2 O. Filter sterilize with 0.2 um filter, and keep in the freezer. On the day of the assay, dilute vancomycin to 50 ug/ml (for VPS-20) or 54 ug/ml (for VPS-D-ala) in BHI broth.
(§6) The test compounds are from 0.1 mg/ml plates in 10% DMSO, 90% 50 mM HEPES, pH 7.3. Thaw at room temperature.
1. […]
(§7) 11. […] Remove mylar lids and check the cell density (A600) in 21-24 hours using a microtiter plate reader. The plates will need to be agitated carefully to resuspend the cells before reading.

E. faecalis VanA strain [2] = assay: Vancomycin potentiation screens VPS-20 and VPS-D-ala; format: cell-based, Enterococcus faecalis; details: 10 ug/ml test compound; for intrinsic activity against the control cells: no vancomycin; for vancomycin potentiation screen result: VPS-20 and/or VPS-D-ala
Protocol: as §1, §2, §3, §4, §5
Prepare D-alanine (Sigma) at 800 mM in ddH2O. Filter sterilize with 0.2 um filter.
as §6
1. Take 40 ul 50 ug/ml vancomycin in BHI to each well of the assay plate (Final volume will be 100 ul, making vancomycin concentration 20 ug/ml)
2. For each assay plate, prepare a toxicity control plate; instead of pipetting 40 ul of the vancomycin, use 40 ul of BHI broth in each well of the assay plate.
3. Dilute 800 mM D-alanine to 200 mM in BHI broth, take 25 ul of the 200 mM D-alanine to both the assay plate and the toxic control plate.
4. Take 15 ul of 54 ug/ml vancomycin in BHI to each well of the assay plate (Final volume will be 100 ul, making vancomycin concentration 8 ug/ml)
5. For each assay plate, prepare a toxicity control plate; instead of pipetting 15 ul of the vancomycin, use 15 ul of BHI broth in each well of the assay plate.
6. Take 10 ul/well of the test compounds to the assay plates and the toxicity control plates. Do this in perfect register in the microtiter plates (change tips), and work using sterile technique (Final concentration will be 10 ug/ml test compounds, 1% DMSO). This must be done with separate tips, in perfect register.
7. Add 10 ul of 10% DMSO, 90% 50 mM HEPES, pH 7.3 in columns 1 and 12 in each plates.
8. Inoculate all wells in columns 2 to 11 with 50 ul 1/800 diluted log phase culture (prepared as indicated above). Use 50 ul sterile BHI instead of inoculum for the negative growth controls in well A-D in columns 1 and well E-H in columns 12. Add 50 ul of inoculum to Wells E-H in columns 1 and wells A-D in columns 12 for the positive growth controls.
as §7

MRSA Col cells = assay: Time-kill curve with methicillin; format: cell-based, Staphylococcus aureus; details: methicillin only; at 24 hours
Protocol: FIG. 3a is a graph of the number of viable MRSA Col cells/ml versus growth time in hours as determined by the method of Example 4. The graph presents the time kill curve for the first potentiating compound from FIG. 1 at 10 μg/ml with methicillin at 20 μg/ml, and curves for controls (drug-free, methicillin only, and potentiator only). Viable cell counts for all controls were greater than 5×10^8 cells/ml at 24 hours, while the viable cell count for methicillin plus potentiator was approximately 5×10^3 cells/ml after 24 hours.
A standard time-kill method (see Eliopolous & Moellering, Ch. 13 in Antibiotics in Laboratory Medicine, 3rd ed., Lorian ed., at pp. 441-444) is used to characterize whether the potentiator-drug combination is bacteriostatic or bactericidal. As controls, normal growth of the pathogen (without drug or potentiator) and the effects of the drug alone and the potentiator alone are assessed using the same inoculum culture as is used in the combination time-kill test. Either bacteriostatic or bactericidal effect should be confirmed for the potentiators to progress to further testing.

MRSA = assay: Potentiation screening assay: methicillin MIC reduction in MRSA; format: cell-based, Staphylococcus aureus; details: Staphylococcus aureus; MRSA, methicillin alone
Protocol: After regrowth at 35° C. to an OD600 of 0.2-0.4 (1-2 hrs.), the cells are diluted 1/1000 in MHB. […] The plate is placed in a humidified 35° C. incubator for 5-24 hours, and cell growth or inhibition is read as turbidity (OD600). Two positive and one negative controls for growth are cells grown MHB, cells grown in MHB plus 20 μg/ml methicillin alone (without test compound), and uninoculated MHB respectively.
Compounds which meet the first two criteria for follow-up are evaluated in a standard microdilution assessment of the MIC with methicillin for MRSA. (see Lorian, Antibiotics in Laboratory Medicine, 3rd ed., pp. 72-75 (1991).) In order to be carried further, the MIC of methicillin preferably is reduced in the presence of the potentiator to at most twice the MIC of a susceptible strain for methicillin.
MICs for the compounds were determined in the presence of 0, 5, and 10 μg/ml of each compound. MRSA cells were grown in the presence of 0, 5, and 10 μg/ml test compound and concentrations of methicillin obtained from serial two-fold dilutions starting at 1024 μg/ml to 0.002 μg/ml (This range can be extended or refined as appropriate.) as follows: A fresh inoculum of MRSA cells was grown at 35° C. in Mueller-Hinton Broth (MHB) overnight and then diluted 1/50 in the same medium. After regrowth at 35° C. to an OD600 of 0.2-0.4 (1-2 hrs.), the cells were diluted 1/1000 in MHB. […] The plate was placed in a humidified 35° C. incubator for 24 hours, and cell growth or inhibition was read as turbidity (OD600).

[3] = test system: Enterococcus faecalis VanA; assay: Vancomycin MIC of the test strain; checkerboard with D-alanine; format: cell-based
Protocol: In addition, in the bacterial strain used in the assays below, vancomycin induces the resistance mechanism. […] However, it is likely that the VPS-8 protocol (or one with a similar glycopeptide concentration)will be useful in conjunction with bacterial strains in which the glycopeptide resistance is not induced by a glycopeptide, such as strains in which the resistance is constitutively expressed.
9. […] 25 ul of the 800 mM D-alanine, 15 ul of 134 ug/ml vancomycin, 10 ul of 10% DMSO, 90% 50 mM HEPES, pH 7.3, 50 ul of BHI broth (negative control) or the inoculum (positive control).

[4] = test system: Enterococcus faecalis VanA; assay: Checkerboard assay / dose range study with vancomycin; format: cell-based
Excerpt: (§8) FIG. 9a provides the results of checkerboard assays showing the MIC reduction for vancomycin in the presence of a range of concentrations of brazilin against two Enterococcus faecalis strains, one VanA and the other VanB. […] Similarly, FIG. 9b provides the results of checkerboard assays showing the MIC reduction for vancomycin in the presence of a range of concentrations of 6-ethyl-7-[1-oxo-3-(1-pyrrolidino)]propyl-1,2,3,4-tetrahydro-1,1,4,4-tetramethylnaphthalene (EOPPTTN).
(§9) Two of the three compounds (brazilin and 6-ethyl-7-[oxo-3-(1-pyrrolidino)]propyl-1,2,3,4-tetrahydro-1,1,4,4-tetramethylnaphthalene) have been examined for synergy with vancomycin. […] Two examples of reasons for alterations are for further optimization, and for modification for use with other bacterial strains or species.

[5] = test system: Enterococcus faecalis VanB; assay: as above; format: cell-based
Excerpt: as §8, §9

[6] = no vancomycin, read-out: percent intrinsic inhibition in the VPS-20 control (without vancomycin)

SMILES: O=C(NCc1ccccc1)c1ccccc1S [N-benzyl thiosalicylamide]
- inhibition at 10 µg/mL (E. faecalis VanA strain [1]; 20 ug/ml vancomycin, read-out: percent growth inhibition in the VPS-20 assay (with vancomycin)): 88%
- inhibition at 10 µg/mL (E. faecalis VanA strain [1]; [6]): 4%
- intrinsic activity against the control cells (E. faecalis VanA strain [2]): little intrinsic activity
- vancomycin potentiation screen result (E. faecalis VanA strain [2]): very potent inhibitor in the assay

SMILES: COc1cccc(OC)c1C(=O)N[C@@H]1C(=O)N2[C@@H]1SC(C)(C)[C@@H]2C(=O)O [methicillin, reference compound]
- viable cell count, methicillin only (control) (MRSA Col cells): greater than 5×10^8 cells/ml
- MIC (MRSA): > 100 µg/mL

SMILES: CN[C@H](CC(C)C)C(=O)N[C@H]1C(=O)N[C@@H](CC(N)=O)C(=O)N[C@H]2C(=O)N[C@H]3C(=O)N[C@H](C(=O)N[C@H](C(=O)O)c4cc(O)cc(O)c4-c4cc3ccc4O)[C@H](O)c3ccc(c(Cl)c3)Oc3cc2cc(c3O[C@@H]2O[C@H](CO)[C@@H](O)[C@H](O)[C@H]2O[C@H]2C[C@](C)(N)[C@H](O)[C@H](C)O2)Oc2ccc(cc2Cl)[C@H]1O [vancomycin]
- MIC of vancomycin in the presence of D-alanine ([3]; 200 mM D-alanine): 16 µg/mL
- MIC ([3]; Enterococcus faecalis, read-out: MIC of vancomycin): 512 µg/mL

SMILES: Oc1ccc2c(c1)OC[C@]1(O)Cc3cc(O)c(O)cc3[C@H]21 [brazilin]
- inhibition at 10 µg/mL (E. faecalis VanA strain [1]; [6]): 32%
- intrinsic activity against the control cells (E. faecalis VanA strain [2]): some intrinsic activity against the control cells
- vancomycin potentiation screen result (E. faecalis VanA strain [2]): positive, but less than N-benzyl thiosalicylamide
- vancomycin MIC reduction in checkerboard assay ([4]; compound 0-20 μg/ml, VanA): significant reduction in the vancomycin MIC
- synergy with vancomycin ([4]; dose range study, VanA phenotype): synergy
- vancomycin MIC reduction in checkerboard assay ([5]; compound 0-20 μg/ml, VanB): significant reduction in the vancomycin MIC
- synergy with vancomycin ([5]; dose range study, VanB phenotype): synergy
